Experimental data published in ChEMBL document CHEMBL1781889, “A chemometric study of the 5-HT(1A) receptor affinities presented by arylpiperazine compounds” (Eur J Med Chem, 2008).

Target: T1, 5-hydroxytryptamine receptor 1A (Homo sapiens, UniProt P08908)
T1 sequence (P08908 whole entry): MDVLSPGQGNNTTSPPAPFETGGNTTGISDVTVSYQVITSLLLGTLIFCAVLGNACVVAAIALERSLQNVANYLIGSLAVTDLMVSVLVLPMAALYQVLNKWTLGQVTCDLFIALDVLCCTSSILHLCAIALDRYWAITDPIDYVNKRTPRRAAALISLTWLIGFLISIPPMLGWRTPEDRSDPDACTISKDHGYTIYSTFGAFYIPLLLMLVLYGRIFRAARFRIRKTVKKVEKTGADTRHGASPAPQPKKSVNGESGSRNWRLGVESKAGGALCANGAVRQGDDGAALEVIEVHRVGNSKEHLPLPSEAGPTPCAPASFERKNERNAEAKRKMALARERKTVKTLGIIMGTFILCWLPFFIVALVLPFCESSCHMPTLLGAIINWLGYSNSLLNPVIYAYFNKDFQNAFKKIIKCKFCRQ
Test: Binding affinity to 5HT1A receptor

SMILES | Ki [nM]
COc1ccccc1N1CCN(CCC(Oc2ccc(C(F)(F)F)cc2)c2ccccc2)CC1 (stereo unspecified) | 447
FC(F)(F)c1ccc(OC(CCN2CCN(c3ncccn3)CC2)c2ccccc2)cc1 (stereo unspecified) | 1580
COc1ccc(N2CCN(CCC(O)c3ccccc3)CC2)cc1 (stereo unspecified) | 5010
OC(CCN1CCN(c2ccc(Cl)cc2)CC1)c1ccc2ccccc2c1 (stereo unspecified) | 5010
O=[N+]([O-])c1ccc(N2CCN(CCC(O)c3ccccc3)CC2)cc1 (stereo unspecified) | 5010
FC(F)(F)c1ccc(OC(CCN2CCN(c3ccccc3Cl)CC2)c2ccccc2)cc1 (stereo unspecified) | 5010
O=C(CCN1CCN(c2ccc(Cl)cc2)CC1)c1ccc2ccccc2c1 | 5010
COc1cc(F)ccc1N1CCN(CCC(O)c2csc3ccccc23)CC1 (stereo unspecified) | 501
OC(CCN1CCN(c2ccc(Cl)cc2)CC1)c1ccccc1 (stereo unspecified) | 794
O=C(CCN1CCN(c2ccc(Cl)cc2)CC1)c1ccccc1 | 794
O=C(CCN1CCN(c2ccc(F)cc2)CC1)c1ccccc1 | 794
COc1ccc(C(CCN2CCN(c3ccccc3OC)CC2)Oc2ccc(C(F)(F)F)cc2)cc1 (stereo unspecified) | 1000
Clc1ccc(N2CCN(CCC(Oc3ccc4c(c3)OCO4)c3ccccc3)CC2)cc1 (stereo unspecified) | 550
COc1ccccc1N1CCN(CCC(=O)c2ccc(-c3ccccc3)cc2)CC1 | 3630
O=C(CCN1CCN(c2ccc(Cl)cc2)CC1)c1cccs1 | 5010
COc1ccc(N2CCN(CCC(O)c3ccc(-c4ccccc4)cc3)CC2)cc1 (stereo unspecified) | 851
O=C(CCN1CCN(c2ccc(Cl)cc2)CC1)c1csc2ccccc12 | 5010
OC(CCN1CCN(c2ccc(Cl)cc2)CC1)c1cccs1 (stereo unspecified) | 5010
COc1ccc(N2CCN(CCC(=O)c3ccccc3)CC2)cc1 | 5010
COc1cc(Cl)ccc1N1CCN(CCC(=O)c2csc3ccccc23)CC1 | 501
COc1ccccc1N1CCN(CCC(O)c2ccc3ccccc3c2)CC1 (stereo unspecified) | 417
OC(CCN1CCN(c2ccc(Cl)cc2)CC1)c1csc2ccccc12 (stereo unspecified) | 5010
O=C(CCN1CCN(c2ccc([N+](=O)[O-])cc2)CC1)c1ccccc1 | 5010
Fc1ccc(N2CCN(CCC(Oc3ccc(C(F)(F)F)cc3)c3ccccc3)CC2)cc1 (stereo unspecified) | 5010
O=[N+]([O-])c1ccc(N2CCN(CCC(Oc3ccc(C(F)(F)F)cc3)c3ccccc3)CC2)cc1 (stereo unspecified) | 5010
COc1ccc(N2CCN(CCC(Oc3ccc(C(F)(F)F)cc3)c3ccccc3)CC2)cc1 (stereo unspecified) | 5010
COc1cc(F)ccc1N1CCN(CCC(=O)c2csc3ccccc23)CC1 | 501
Cc1ccc(OC(CCN2CCN(c3ccc(Cl)cc3)CC2)c2ccccc2)cc1 (stereo unspecified) | 1450
COc1ccccc1N1CCN(CCC(Oc2ccc(C(F)(F)F)cc2)c2ccc(-c3ccccc3)cc2)CC1 (stereo unspecified) | 5010

The next compounds have a lower Ki than those just listed; values first:

Ki [nM] | SMILES
251 | COc1ccccc1N1CCN(CCC(=O)c2ccc3ccccc3c2)CC1
50.1 | O=C(CCN1CCN(c2ccccn2)CC1)c1ccccc1
110 | O=C(CCN1CCN(c2ccccc2O)CC1)c1csc2ccccc12
17.4 | COc1ccccc1N1CCN(CCC(=O)c2ccc(C)s2)CC1
15.8 | COc1ccccc1N1CCN(CCC(=O)c2ccsc2)CC1
200 | OC(CCN1CCN(c2ccccc2Cl)CC1)c1ccsc1 (stereo unspecified)
19.1 | COc1ccccc1N1CCN(CCC(O)c2cccs2)CC1 (stereo unspecified)
43.7 | COc1ccccc1N1CCN(CCC(=O)c2csc3ccccc23)CC1
10 | COc1ccccc1N1CCN(CCC(=O)c2cccs2)CC1
155 | OC(CCN1CCN(c2ccccn2)CC1)c1ccccc1 (stereo unspecified)
200 | O=C(CCN1CCN(c2ccccc2Cl)CC1)c1ccsc1
18.2 | Oc1ccccc1N1CCN(CCC(O)c2csc3ccccc23)CC1 (stereo unspecified)
20 | COc1ccccc1N1CCN(CCC(O)c2csc3ccccc23)CC1 (stereo unspecified)
17.4 | COc1ccccc1N1CCN(CC/C(=N\O)c2ccccc2)CC1
100 | O=C(CCN1CCN(c2cccc3ccccc23)CC1)c1csc2ccccc12
7.59 | Cc1cc(C(=O)CCN2CCN(c3ccccc3O)CC2)c(C)s1

Ki [nM] | SMILES
115 | OC(CCN1CCN(c2ccccc2Cl)CC1)c1ccccc1 (stereo unspecified)
100 | Cc1cc(C(=O)CCN2CCN(c3cccc4ccccc34)CC2)c(C)s1
33.9 | COc1ccccc1N1CCN(CCC(O)c2ccc(C)s2)CC1 (stereo unspecified)
324 | COc1ccc(C(O)CCN2CCN(c3ccccc3OC)CC2)cc1 (stereo unspecified)
34.7 | O=C(CCN1CCN(c2cccc3ccccc23)CC1)c1ccsc1
47.9 | COc1ccccc1N1CCN(CCC(O)c2ccccc2)CC1 (stereo unspecified)
182 | O=C(CCN1CCN(c2ccccc2Cl)CC1)c1ccccc1
120 | O=C(CCN1CCN(c2ncccn2)CC1)c1ccccc1
50.1 | COc1ccccc1N1CCN(CCC(O)c2ccsc2)CC1 (stereo unspecified)
6.46 | COc1ccccc1N1CCN(CC/C(=N\O)c2ccsc2)CC1
5.01 | COc1ccccc1N1CCN(CCC(=O)c2cc(C)sc2C)CC1
91.2 | Cc1cc(C(O)CCN2CCN(c3ccccc3O)CC2)c(C)s1 (stereo unspecified)
339 | COc1ccccc1N1CCN(CCC(=O)c2ccc([N+](=O)[O-])s2)CC1
257 | COc1ccccc1N1CCN(CCC(Oc2ccc(C(F)(F)F)cc2)c2ccsc2)CC1 (stereo unspecified)
363 | COc1cc(Cl)ccc1N1CCN(CCC(O)c2csc3ccccc23)CC1 (stereo unspecified)
12 | COc1ccccc1N1CCN(CCC(O)c2cc(C)sc2C)CC1 (stereo unspecified)
